Patent US8802597B2, “Herbicidal pyrimidines” (E I du Pont de Nemours and Company, priority 2003, dated 2014)
Like-named read-outs stand apart in the source and are kept apart here.

Legend:
Assay type in all cases: in vivo
[1] = test system: umbrella sedge (Cyperus difformis); assay: Test B flooded paddy test; conditions: Cyperus difformis, Flood, 1000 g ai/ha; scale 0 to 100; read-out: Plant response rating, Sedge, Umbrella
In short: (§1)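 Plants were grown to the 2-leaf stage before treatment, then kept in a greenhouse for 13 to 15 days. Injury was rated visually against untreated controls on a 0 to 100 scale, where 0 is no effect and 100 is complete control.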

[2] = test system: barnyardgrass (Echinochloa crus-galli); assay: Test B flooded paddy test; conditions: Echinochloa crus-galli, Flood, 1000 g ai/ha; scale 0 (no effect) to 100 (complete control); read-out: Plant response rating, Barnyardgrass
In short: as §1

rice (Oryza sativa) = assay: Test B flooded paddy test; conditions: Oryza sativa, Flood, 1000 g ai/ha; scale 0 to 100; read-out: Plant response rating, Rice
In short: as §1

[3] = test system: duck salad (Heteranthera limosa); assay: Test B flooded paddy test; conditions: Heteranthera limosa, Flood, 1000 g ai/ha; scale 0 to 100; read-out: Plant response rating, Ducksalad
In short: as §1

[4] = test system: wheat (Triticum aestivum); assay: Test B pre/postemergence; conditions: Triticum aestivum; for plant injury at 125 g/ha: 125 g ai/ha; for plant injury at 500 g/ha: 500 g ai/ha
In short: (§2)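 Compounds in non-phytotoxic solvent with surfactant applied preemergence to planted seeds or postemergence to plants 2 to 18 cm tall (1- to 4-leaf stage). Greenhouse 13 to 15 days, then visual rating against controls on a 0 to 100 scale (100 = complete control).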

[5] = test system: pigweed (Amaranthus retroflexus); assay: Test B pre/postemergence; conditions: Amaranthus retroflexus; for pest or weed control at 125 g/ha: 125 g ai/ha; for pest or weed control at 500 g/ha: 500 g ai/ha
In short: as §2

[6] = test system: crabgrass (Digitaria sanguinalis); assay: Test B pre/postemergence; conditions: Digitaria sanguinalis; for pest or weed control at 125 g/ha: 125 g ai/ha; for pest or weed control at 500 g/ha: 500 g ai/ha
In short: as §2

[7] = test system: Surinam grass (Brachiaria decumbens); assay: Test B pre/postemergence; conditions: Urochloa decumbens; for pest or weed control at 125 g/ha: 125 g ai/ha; for pest or weed control at 500 g/ha: 500 g ai/ha
In short: as §2

[8] = test system: lambsquarters (Chenopodium album); assay: Test B pre/postemergence; conditions: Chenopodium album; for pest or weed control at 125 g/ha: 125 g ai/ha; for pest or weed control at 500 g/ha: 500 g ai/ha
In short: as §2

[9] = test system: velvetleaf (Abutilon theophrasti); assay: Test B pre/postemergence; conditions: Abutilon theophrasti; for pest or weed control at 125 g/ha: 125 g ai/ha; for pest or weed control at 500 g/ha: 500 g ai/ha
In short: as §2

[10] = test system: giant foxtail (Setaria faberii); assay: Test B pre/postemergence; conditions: Setaria faberi; for pest or weed control at 125 g/ha: 125 g ai/ha; for pest or weed control at 500 g/ha: 500 g ai/ha
In short: as §2

[11] = test system: morningglory (Ipomoea coccinea); assay: Test B pre/postemergence; conditions: Ipomoea; for pest or weed control at 125 g/ha: 125 g ai/ha; for pest or weed control at 500 g/ha: 500 g ai/ha
In short: as §2

[12] = test system: barnyardgrass (Echinochloa crus-galli); assay: Test B pre/postemergence; conditions: Echinochloa crus-galli; for pest or weed control at 125 g/ha: 125 g ai/ha; for pest or weed control at 500 g/ha: 500 g ai/ha
In short: as §2

[13] = test system: cocklebur (Xanthium strumarium); assay: Test B pre/postemergence; conditions: Xanthium strumarium; for pest or weed control at 125 g/ha: 125 g ai/ha; for pest or weed control at 500 g/ha: 500 g ai/ha
In short: as §2

corn (Zea mays) = assay: Test B pre/postemergence; conditions: Zea mays
In short: as §2

wild oat (Avena fatua) = assay: Test B postemergence; conditions: Avena fatua, post-emergence
In short: as §2

[14] = test system: blackgrass (Alopecurus myosuroides); assay: Test B postemergence; conditions: Alopecurus myosuroides, post-emergence
In short: as §2

[15] = pre-emergence, Preemergence, scale 0 to 100 (0 no effect, 100 complete control), read-out: Plant response rating, Wheat

CCOC(=O)c1nc(C2CC2)nc(NN)c1Br [Compound 42]
0%: pest or weed control at 1000 g/ha [1] | pest or weed control at 1000 g/ha [2] | plant injury at 1000 g/ha (rice (Oryza sativa)) | pest or weed control at 1000 g/ha [3] | pest or weed control at 125 g/ha ([6]; post-emergence, Postemergence, scale 0 to 100 (0 no effect, 100 complete control), read-out: Crabgrass plant response rating) | pest or weed control at 125 g/ha ([6]; pre-emergence, Preemergence, scale 0 to 100 (0 no effect, 100 complete control), read-out: Plant response rating, Crabgrass) | pest or weed control at 125 g/ha ([7]; post-emergence, Postemergence, scale 0 to 100 (0 no effect, 100 complete control), read-out: Surinam Grass plant response rating) | pest or weed control at 125 g/ha ([7]; pre-emergence, Preemergence, scale 0 to 100 (0 no effect, 100 complete control), read-out: Plant response rating, Surinam Grass) | pest or weed control at 125 g/ha ([10]; post-emergence, Postemergence, scale 0 to 100 (0 no effect, 100 complete control), read-out: Foxtail, Giant plant response rating) | pest or weed control at 500 g/ha ([10]; post-emergence, Postemergence, scale 0 to 100, read-out: Plant response rating, Foxtail, Giant) | pest or weed control at 125 g/ha ([10]; pre-emergence, Preemergence, scale 0 to 100 (0 no effect, 100 complete control), read-out: Plant response rating, Foxtail, Giant) | pest or weed control at 500 g/ha ([10]; pre-emergence, Preemergence, scale 0 to 100 (0 no effect, 100 complete control), read-out: Foxtail, Giant plant response rating) | pest or weed control at 125 g/ha ([12]; pre-emergence, Preemergence, scale 0 to 100 (0 no effect, 100 complete control), read-out: Plant response rating, Barnyardgrass) | pest or weed control at 500 g/ha ([12]; pre-emergence, Preemergence, scale 0 to 100 (0 no effect, 100 complete control), read-out: Barnyardgrass plant response rating) | plant injury at 125 g/ha (corn (Zea mays); post-emergence, Postemergence, 125 g ai/ha, scale 0 to 100 (0 no effect, 100 complete control), read-out: Corn plant response rating) | Corn plant response rating (crop injury, 0 = no effect, 100 = complete kill) at 500 g/ha (corn (Zea mays); post-emergence, Postemergence, 500 g ai/ha, scale 0 to 100) | Corn plant response rating (crop injury, 0 = no effect, 100 = complete kill) at 125 g/ha (corn (Zea mays); pre-emergence, Preemergence, 125 g ai/ha, scale 0 to 100 (0 no effect, 100 complete control)) | plant injury at 500 g/ha (corn (Zea mays); pre-emergence, Preemergence, 500 g ai/ha, scale 0 to 100 (0 no effect, 100 complete control), read-out: Corn plant response rating) | pest or weed control at 125 g/ha (wild oat (Avena fatua); 125 g ai/ha, scale 0 to 100 (0 no effect, 100 complete control), read-out: Oat, Wild plant response rating) | pest or weed control at 500 g/ha (wild oat (Avena fatua); 500 g ai/ha, scale 0 to 100, read-out: Plant response rating, Oat, Wild)
50%: plant injury at 125 g/ha ([4]; post-emergence, Postemergence, scale 0 to 100 (0 no effect, 100 complete control), read-out: Wheat plant response rating) | plant injury at 500 g/ha ([4]; post-emergence, Postemergence, scale 0 to 100, read-out: Plant response rating, Wheat) | pest or weed control at 125 g/ha ([5]; pre-emergence, Preemergence, scale 0 to 100 (0 no effect, 100 complete control), read-out: Plant response rating, Pigweed) | pest or weed control at 125 g/ha ([9]; post-emergence, Postemergence, scale 0 to 100 (0 no effect, 100 complete control), read-out: Velvetleaf plant response rating)
30%: pest or weed control at 500 g/ha ([6]; post-emergence, Postemergence, scale 0 to 100, read-out: Plant response rating, Crabgrass) | pest or weed control at 500 g/ha ([12]; post-emergence, Postemergence, scale 0 to 100, read-out: Plant response rating, Barnyardgrass) | pest or weed control at 125 g/ha ([14]; 125 g ai/ha, scale 0 to 100 (0 no effect, 100 complete control), read-out: Blackgrass plant response rating)
80%: pest or weed control at 125 g/ha ([5]; post-emergence, Postemergence, scale 0 to 100 (0 no effect, 100 complete control), read-out: Pigweed plant response rating) | pest or weed control at 125 g/ha ([8]; post-emergence, Postemergence, scale 0 to 100 (0 no effect, 100 complete control), read-out: Lambsquarters plant response rating) | pest or weed control at 500 g/ha ([9]; post-emergence, Postemergence, scale 0 to 100, read-out: Plant response rating, Velvetleaf) | pest or weed control at 125 g/ha ([11]; post-emergence, Postemergence, scale 0 to 100 (0 no effect, 100 complete control), read-out: Morningglory plant response rating) | pest or weed control at 500 g/ha ([11]; pre-emergence, Preemergence, scale 0 to 100 (0 no effect, 100 complete control), read-out: Morningglory plant response rating) | pest or weed control at 125 g/ha ([13]; post-emergence, Postemergence, scale 0 to 100 (0 no effect, 100 complete control), read-out: Cocklebur plant response rating)
40%: pest or weed control at 125 g/ha ([8]; pre-emergence, Preemergence, scale 0 to 100 (0 no effect, 100 complete control), read-out: Plant response rating, Lambsquarters) | pest or weed control at 125 g/ha ([13]; pre-emergence, Preemergence, scale 0 to 100 (0 no effect, 100 complete control), read-out: Plant response rating, Cocklebur)
90%: pest or weed control at 500 g/ha ([5]; post-emergence, Postemergence, scale 0 to 100, read-out: Plant response rating, Pigweed) | pest or weed control at 500 g/ha ([5]; pre-emergence, Preemergence, scale 0 to 100 (0 no effect, 100 complete control), read-out: Pigweed plant response rating) | pest or weed control at 500 g/ha ([8]; post-emergence, Postemergence, scale 0 to 100, read-out: Plant response rating, Lambsquarters) | pest or weed control at 500 g/ha ([8]; pre-emergence, Preemergence, scale 0 to 100 (0 no effect, 100 complete control), read-out: Lambsquarters plant response rating) | pest or weed control at 500 g/ha ([11]; post-emergence, Postemergence, scale 0 to 100, read-out: Plant response rating, Morningglory) | pest or weed control at 500 g/ha ([13]; post-emergence, Postemergence, scale 0 to 100, read-out: Plant response rating, Cocklebur)
60%: pest or weed control at 500 g/ha ([14]; 500 g ai/ha, scale 0 to 100, read-out: Plant response rating, Blackgrass)
70%: pest or weed control at 500 g/ha ([9]; pre-emergence, Preemergence, scale 0 to 100 (0 no effect, 100 complete control), read-out: Velvetleaf plant response rating) | pest or weed control at 500 g/ha ([13]; pre-emergence, Preemergence, scale 0 to 100 (0 no effect, 100 complete control), read-out: Cocklebur plant response rating)
10%: plant injury at 125 g/ha [4, 15] | plant injury at 500 g/ha [4, 15] | pest or weed control at 500 g/ha ([7]; post-emergence, Postemergence, scale 0 to 100, read-out: Plant response rating, Surinam Grass) | pest or weed control at 125 g/ha ([9]; pre-emergence, Preemergence, scale 0 to 100 (0 no effect, 100 complete control), read-out: Plant response rating, Velvetleaf) | pest or weed control at 125 g/ha ([12]; post-emergence, Postemergence, scale 0 to 100 (0 no effect, 100 complete control), read-out: Barnyardgrass plant response rating)
20%: pest or weed control at 500 g/ha ([6]; pre-emergence, Preemergence, scale 0 to 100 (0 no effect, 100 complete control), read-out: Crabgrass plant response rating) | pest or weed control at 500 g/ha ([7]; pre-emergence, Preemergence, scale 0 to 100 (0 no effect, 100 complete control), read-out: Surinam Grass plant response rating) | pest or weed control at 125 g/ha ([11]; pre-emergence, Preemergence, scale 0 to 100 (0 no effect, 100 complete control), read-out: Plant response rating, Morningglory)
